Source: PubChem BioAssay (NCI)
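Method: 48-hour compound exposure of cells in 96-well plates, five concentrations, linear interpolation of endpoints. Abbreviation: GI50, concentration required for 50% inhibition of growth. Definition used: TGI = concentration required for complete inhibition of growth.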

Tests used:
Test in all cases: DTP human tumour cell line panel, 48 h
UO-31 renal = system: UO-31 renal
MALME-3M melanoma = system: MALME-3M melanoma
K-562 leukemia = system: K-562 leukemia
786-0 renal = system: 786-0 renal
SF-295 CNS = system: SF-295 CNS
A498 renal = system: A498 renal
EKVX NSCLC = system: EKVX NSCLC
HT29 colon = system: HT29 colon
SF-539 CNS = system: SF-539 CNS
LOX IMVI melanoma = system: LOX IMVI melanoma

Compound | GI50 (UO-31 renal) | TGI (UO-31 renal) | GI50 (MALME-3M melanoma) | TGI (MALME-3M melanoma) | GI50 (K-562 leukemia) | GI50 (786-0 renal) | TGI (786-0 renal) | GI50 (SF-295 CNS) | TGI (SF-295 CNS) | GI50 (A498 renal) | TGI (A498 renal) | GI50 (EKVX NSCLC) | TGI (EKVX NSCLC) | GI50 (HT29 colon) | TGI (HT29 colon) | GI50 (SF-539 CNS) | TGI (SF-539 CNS) | GI50 (LOX IMVI melanoma) | TGI (LOX IMVI melanoma) | TGI (K-562 leukemia)
c1ccc2[nH]c(-c3ccc(OCCCCCOc4ccc(-c5nc6ccccc6[nH]5)cc4)cc3)nc2c1 | 1.25 µM | 3.67 µM | 2.12 µM | 3.93 µM | 1.04 µM | 2.28 µM | 5.92 µM | 5.61 µM | 13.1 µM | 6.51 µM | 15.8 µM | 14.8 µM | > 70.4 µM | 0.629 µM | 2750 nM | 0.835 µM | 2300 nM | 1.22 µM | 2570 nM | –
CN(/N=N/c1nc(OCc2ccccc2)c2[nH]cnc2n1)C(=O)N(C)/N=N/c1nc(OCc2ccccc2)c2[nH]cnc2n1 | 36.1 µM | > 100 µM | 40.8 µM | > 100 µM | 75.8 µM | 59.7 µM | > 100 µM | 32.4 µM | > 100 µM | 19.7 µM | 54 µM | 38.3 µM | > 100 µM | 60.5 µM | > 100000 nM | 38.4 µM | > 100000 nM | 37 µM | > 100000 nM | > 100 µM
